Source: US10842806B2, “Methods for treating ocular inflammatory disorders” (Massachusetts Eye and Ear Infirmary, priority 2011, dated 2020)

Legend:
[1] = system: endotoxin-induced uveitis (EIU); assay: Histopathologic evaluation of EIU eyes (iris-ciliary body); type: in vivo, Lewis rats; settings: AICAR 50 mg/kg pretreatment, 24 h after LPS
Procedure: Male Lewis rats ranging from 6-8 weeks old (Charles River, Wilmington, Mass.) were used for these studies. To study the effects of AICAR pretreatment, AICAR and PBS (for placebo treatment) were delivered via intraperitoneal injection of AICAR (50 mg/kg or 100 mg/kg body weight; Sigma) diluted in 150 μl PBS or equal volume of PBS at 6 hours before and at the same time as LPS injection. Four experimental groups of rats were compared: (1) Normal: no treatment (2) AICAR: normal rats treated with AICAR 6 hours before examination; (3) LPS: EIU rats treated with PBS; (4) LPS+AICAR: EIU rats treated with AICAR. Two additional groups of rats were used to study the effects of AICAR (50 mg/kg) given either at the same time as LPS injection or at 6 hours after LPS injection. For histopathologic evaluations, EIU rats were euthanized 24 hours after LPS injection. The eyes were enucleated immediately and stored in 10% formalin solution. The eyes were then embedded in paraffin, and 10 μm sagittal sections were cut and stained with hematoxylin and eosin. For histopathologic evaluation, the anterior chamber and posterior chamber around the iris-ciliary body complex were examined with light microscopy.

CD14 = CD14 mRNA (real time PCR) and protein (Western blot) in PBMC of EIU rats; type: in vivo, Lewis rats; settings: three hours after LPS
Procedure: Male Lewis rats ranging from 6-8 weeks old (Charles River, Wilmington, Mass.) were used for these studies. To study the effects of AICAR pretreatment, AICAR and PBS (for placebo treatment) were delivered via intraperitoneal injection of AICAR (50 mg/kg or 100 mg/kg body weight; Sigma) diluted in 150 μl PBS or equal volume of PBS at 6 hours before and at the same time as LPS injection. Four experimental groups of rats were compared: (1) Normal: no treatment (2) AICAR: normal rats treated with AICAR 6 hours before examination; (3) LPS: EIU rats treated with PBS; (4) LPS+AICAR: EIU rats treated with AICAR. Two additional groups of rats were used to study the effects of AICAR (50 mg/kg) given either at the same time as LPS injection or at 6 hours after LPS injection. For preparation of peripheral blood mononuclear cell (PBMC) samples, blood samples were collected at three hours after LPS injection, and PBMC samples were isolated by density gradient centrifugation with Histopaque 1083 (Sigma). The red blood cells were lysed with Red Blood Cell Lysing Buffer (Sigma). For Western blot analysis, pooled PBMCs from three rats were homogenized with lysis buffer (Roche Diagnostics Corp) and centrifuged at 13,000 rpm for 10 minutes at 4° C. […] Quantitative expression data were acquired and analyzed with a Step One Plus real-time PCR system (Applied Biosystems).

[2] = system: experimental autoimmune uveitis (EAU); assay: Clinical scoring of EAU by funduscopic examination; type: in vivo, C57BL/6 (WT) mice
WT BMDCs = assay: LPS-stimulated BMDC maturation (FACS) and cytokine production (ELISA); type: cell-based, mice
Procedure: BMDCs were generated as previously described (Wang et al. (2005) IMMUNOL. LETT. 98:123-130). Briefly, bone marrow was flushed from the femurs and tibias of naive mice (6 to 8-week-old WT or AMPKα1 KO mice). The red blood cells were lysed using Red Blood Cell Lysing Buffer (Sigma). Approximately 2×10^6 cells were cultured in complete medium (RPMI 1640 medium containing 10% FBS, […], 10 mM HEPES [pH 7.4], 2 mM glutamine, 100 U/ml penicillin, and […]) including 10 ng/ml GM-CSF (Pepro Tech, London, England). Fresh media was added to the cells on day 4 of culture, and nonadherent cells and loosely adherent cells were collected as immature DCs on day 7. Immature DCs were stimulated with 100 ng/ml LPS (Salmonella typhimurium; Sigma) for 24 hours to obtain mature DCs. In some experiments, AICAR was added to the culture. […] After LPS stimulation for 24 hours, supernatant of the BMDC culture was collected and IL-6, TNF-α and IL12/23 p40 concentrations were measured (R&D system).

[3] = 100 ng/ml LPS 24 hours with AICAR, dose-dependent manner
[4] = LPS stimulation for 24 hours with AICAR, ELISA

NC(=O)c1ncn([C@@H]2O[C@H](CO)[C@@H](O)[C@H]2O)c1N [AICAR, 5-aminoimidazole-4-carboxamide-1-β-d-ribofuranoside]
Number of leukocytes infiltrated around the iris-ciliary body (histopathology) [1]: suppressed
CD14 mRNA expression in PBMCs (CD14; AICAR pretreatment, n=9, EIU 3.8±0.7, normal 0.7±0.3): 1.7±1.0
CD14 protein expression in PBMCs (Western blot) (CD14; AICAR-pretreated rats vs EIU rats): decreased
EAU mean clinical score ([2]; AICAR 200 mg/kg i.p. daily day 0 to 21, day 21, scale 0-4, n=15, control 2.6±0.70): 1.32±0.95
Clinical inflammation on fundus examination ([2]; AICAR 100 or 200 mg/kg daily, dose-dependent manner): suppressed
EAU mean clinical score, effector phase treatment ([2]; AICAR administered from day 8 to 21 after immunization, n=8, controls 2.44±0.56): 1.50±0.86
CD40 expression on BMDCs (WT BMDCs; [3]): significantly suppressed
CD80 expression on BMDCs (WT BMDCs; [3]): significantly suppressed
CD86 expression on BMDCs (WT BMDCs; [3]): significantly suppressed
I-A^b expression on BMDCs (WT BMDCs; [3]): significantly suppressed
IL-6 production in BMDCs (WT BMDCs; [4]): significantly suppressed
IL-12/23 p40 production in BMDCs (WT BMDCs; [4]): significantly suppressed
TNF-α production in BMDCs (WT BMDCs; [4]): significantly suppressed
